What follows are compounds tested on BMP signal in MDA-231-D-BREFluc/Rluc cells (assay: BMP signal inhibitory effect (AlphaScreen SureFire SMAD1 p-Ser463/465, BMP-6 stimulation)). Details: not given.
Type: cell-based
Experimental: BMP Signal Inhibitory Effect
A BMP signal inhibitory activity of a compound of the present invention was evaluated according to the following method.
MDA-231-D-BREFluc/Rluc cells prepared according to the method described in Y. Katsuno et al., Oncogene, 27, 6322 (2008) were incubated at 37° C. for 2 hours together with test compounds, and BMP-6 (commercially available from R&D System, 507-BM-020) was then added thereto, and the mixture was additionally incubated at 37° C. for 30 minutes. A Lysis Buffer and Acceptor mix of AlphaScreen SureFire SMAD1 (p-Ser463/465) assay kit (commercially available from Perkin Elmer, TGRSM1S10K) were sequentially added thereto, the mixture was incubated at room temperature for 2 hours, and AlphaScreen Protein A kit (commercially available from Perkin Elmer, 6760617) was then added thereto, and standard AlphaScreen settings of Alpha Technology—compatible plate reader (commercially available from Perkin Elmer, EnSpire) was used for measurement.

CCn1cc(-c2ccnc(Nc3ccc(C(=O)N4CC5CCC(C4)N5C)cc3)n2)c(-c2cccnc2)n1 [Example 117, (4-((4-(1-Ethyl-3-(pyridin-3-yl)-1H-pyrazol-4-yl)pyrimidin-2-yl)amino)phenyl) (8-methyl-3,8-diazabicyclo [3.2.1]octan-3-yl)methanone] and CCn1cc(-c2ccnc(Nc3ccc(OC4CC5CCC(C4)N5)cc3)n2)c(-c2cccnc2)n1 (centres unmarked) [Example 146, N-(4-((8-Azabicyclo[3.2.1]octan-3-yl)oxy)phenyl)-4-(1-ethyl-3-(pyridin-3-yl)-1H-pyrazol-4-yl)pyrimidin-2-amine] are within 1.5-fold of each other in IC50: 0.012 µM for the first, 0.0135 µM for the second.

Same assay, conditions: BMP-6 stimulated MDA-231-D-BREFluc/Rluc cells, phospho-SMAD1 AlphaScreen; read-out: IC50

First: N#Cc1ccccc1Cn1cc(-c2ccnc(Nc3ccc(N4CCNCC4)cc3)n2)c(-c2cccnc2)n1 [Example 157, 2-((4-(2-((4-(Piperazin-1-yl)phenyl)amino)pyrimidin-4-yl)-3-(pyridin-3-yl)-1H-pyrazol-1-yl)methyl)benzonitrile]
Second: c1ccc(Cn2cc(-c3ccnc(Nc4ccc(N5CCNCC5)cc4)n3)c(-c3cccnc3)n2)nc1 [Example 140, N-(4-(Piperazin-1-yl)phenyl)-4-(1-(pyridin-2-ylmethyl)-3-(pyridin-3-yl)-1H-pyrazol-4-yl)pyrimidin-2-amine]
The IC50 of the first is 1.6-fold lower: 0.0197 µM for the first, 0.0319 µM for the second.

CCn1cc(-c2ccnc(Nc3ccc(C4CCN(CCOC)CC4)cc3)n2)c(-c2cccnc2)n1 [Example 58, 4-(1-ethyl-3-(pyridin-3-yl)-1H-pyrazol-4-yl)-N-(4-(1-(2-methoxyethyl)piperidin-4-yl)phenyl)pyrimidin-2-amine] and CCn1cc(-c2ccnc(Nc3ccc(C4CCN(CCOC)C4)cc3)n2)c(-c2cccnc2)n1 (centres unmarked) [Example 50, 4-(1-ethyl-3-(pyridin-3-yl)-1H-pyrazol-4-yl)-N-(4-(1-(2-methoxyethyl)pyrrolidin-3-yl)phenyl)pyrimidin-2-amine] are within 1.5-fold of each other in IC50: 0.0044 µM for the first, 0.0063 µM for the second.

CN1Cc2ccc(Nc3nccc(-c4cn(CC(C)(C)O)nc4-c4cccnc4)n3)cc2C1 [Example 63, 2-Methyl-1-(4-(2-((2-methylisoindolin-5-yl)amino)pyrimidin-4-yl)-3-(pyridin-3-yl)-1H-pyrazol-1-yl)propan-2-ol] and CN1CCc2cc(Nc3nccc(-c4cn(CC(C)(C)O)nc4-c4cccnc4)n3)ccc2C1 [Example 65, 2-Methyl-1-(4-(2-((2-methyl-1,2,3,4-tetrahydroisoquinolin-6-yl)amino)pyrimidin-4-yl)-3-(pyridin-3-yl)-1H-pyrazol-1-yl)propan-2-ol] are within 1.5-fold of each other in IC50: 0.0039 µM for the first, 0.0033 µM for the second.

First: CCn1cc(-c2ccnc(Nc3cnn(C4CCOCC4)c3)n2)c(-c2cccnc2)n1 [Example 53, 4-(1-ethyl-3-(pyridin-3-yl)-1H-pyrazol-4-yl)-N-(1-(tetrahydro-2H-pyran-4-yl)-1H-pyrazol-4-yl)pyrimidin-2-amine]
Second: CCn1cc(-c2ccnc(Nc3cccc(C4CCN(C)CC4)c3)n2)c(-c2cccnc2)n1 [Example 114, 4-(1-Ethyl-3-(pyridin-3-yl)-1H-pyrazol-4-yl)-N-(3-(1-methylpiperidin-4-yl)phenyl)pyrimidin-2-amine]
The IC50 of the first is 24-fold higher: 0.022 µM for the first, 0.0009 µM for the second.

CC(C)N1CCN(C(=O)c2ccc(Nc3nccc(-c4cn(CCc5ccccc5)nc4-c4cccnc4)n3)cc2)CC1 [Example 123, (4-lsopropylpiperazin-1-yl) (4-((4-(1-phenethyl-3-(pyridin-3-yl)-1H-pyrazol-4-yl)pyrimidin-2-yl)amino)phenyl) methanone] and CCn1cc(-c2ccnc(Nc3ccc(C(=O)N4CCN(C)CC4)cc3)n2)c(-c2cccnc2)n1 [Example 116, (4-((4-(1-Ethyl-3-(pyridin-3-yl)-1H-pyrazol-4-yl)pyrimidin-2-yl)amino)phenyl)(4-methylpiperazin-1-yl)methanone] are within 1.5-fold of each other in IC50: 0.0126 µM for the first, 0.0151 µM for the second.

Compared with CCn1cc(-c2ccnc(Nc3ccc(C4CCN(C)CC4)c(F)c3)n2)c(-c2cccnc2)n1 [Example 45, 4-(1-ethyl-3-(pyridin-3-yl)-1H-pyrazol-4-yl)-N-(3-fluoro-4-(1-methylpiperidin-4-yl)phenyl)pyrimidin-2-amine], CCn1cc(-c2ccnc(Nc3ccc(C4CCCN(C)C4)cc3)n2)c(-c2cccnc2)n1 (centres unmarked) [Example 113, 4-(1-Ethyl-3-(pyridin-3-yl)-1H-pyrazol-4-yl)-N-(4-(1-methylpiperidin-3-yl)phenyl)pyrimidin-2-amine] is 1.5-fold lower in IC50: 0.0121 µM for the first, 0.008 µM for the second.

CCn1cc(-c2ccnc(Nc3ccc4c(c3)CN(CC3CCCO3)CC4)n2)c(-c2cccnc2)n1 (centres unmarked) [Example 88, N-(4-(1-Ethyl-3-(pyridin-3-yl)-1H-pyrazol-4-yl)pyrimidin-2-yl)-2-((tetrahydrofuran-2-yl)methyl)-1,2,3,4-tetrahydroisoquinolin-7-amine] and CCn1cc(-c2ccnc(Nc3ccc4c(c3)CCN(CC(O)COC)C4)n2)c(-c2cccnc2)n1 (centres unmarked) [Example 109, 1-(6-((4-(1-Ethyl-3-(pyridin-3-yl)-1H-pyrazol-4-yl)pyrimidin-2-yl)amino)-3,4-dihydroisoquinolin-2 (1H)-yl)-3-methoxypropan-2-ol] are within 1.5-fold of each other in IC50: 0.0055 µM for the first, 0.0057 µM for the second.

Going from CCn1cc(-c2ccnc(Nc3ccc(OC4CCNCC4F)cc3)n2)c(-c2cccnc2)n1 (centres unmarked) [Example 164, 4-(1-Ethyl-3-(pyridin-3-yl)-1H-pyrazol-4-yl)-N-(4-((3-fluoropiperidin-4-yl)oxy)phenyl) pyrimidin-2-amine] to CCn1cc(-c2ccnc(Nc3ccc(C(C)=O)cc3)n2)c(-c2cccnc2)n1 [Example 6, 1-(4-((4-(1-Ethyl-3-(pyridin-3-yl)-1H-pyrazol-4-yl)pyrimidin-2-yl)amino)phenyl) ethan-1-one], the IC50 rises from 0.0114 µM to 0.0292 µM (2.6-fold). The first is the more potent here.

CCn1cc(-c2ccnc(Nc3ccc(N4CCN(CCOCC5CC5)CC4)cc3)n2)c(-c2cccnc2)n1 [Example 52, N-(4-(4-(2-(Cyclopropylmethoxy)ethyl)piperazin-1-yl)phenyl)-4-(1-ethyl-3-(pyridin-3-yl)-1H-pyrazol-4-yl)Pyrimidin-2-amine] and CCn1cc(-c2ccnc(Nc3ccc(N4CCN(CCOCC(F)F)CC4)cc3)n2)c(-c2cccnc2)n1 [Example 51, N-(4-(4-(2-(2,2-difluoroethoxy)ethyl)piperazin-1-yl)phenyl)-4-(1-ethyl-3-(pyridin-3-yl)-1H-pyrazol-4-yl)pyrimidin-2-amine] are within 1.5-fold of each other in IC50: 0.0133 µM for the first, 0.0183 µM for the second.

Going from CCn1cc(-c2ccnc(Nc3ccc4c(n3)CCN(C)C4)n2)c(-c2cccnc2)n1 [Example 7, N-(4-(1-ethyl-3-(pyridin-3-yl)-1H-pyrazol-4-yl)pyrimidin-2-yl)-6-methyl-5,6,7,8-tetrahydro-1,6-naphthyridin-2-amine] to CCn1cc(-c2ccnc(Nc3ccc4c(c3)CNC4)n2)c(-c2cccnc2)n1 [Example 73, N-(4-(1-ethyl-3-(pyridin-3-yl)-1H-pyrazol-4-yl)pyrimidin-2-yl)isoindolin-5-amine], the IC50 falls from 0.144 µM to 0.0072 µM (20-fold). The second is the more potent here.

Compared with CCn1cc(-c2ccnc(Nc3ccc(C(=O)N4CCCCC4)cc3)n2)c(-c2cccnc2)n1 [Example 2, (4-((4-(1-ethyl-3-(pyridin-3-yl)-1H-pyrazol-4-yl)pyrimidin-2-yl)amino)phenyl)(piperidin-1-yl)methanone], CCn1cc(-c2ccnc(Nc3ccc(N4CCCN(CCOC)CC4)cc3)n2)c(-c2cccnc2)n1 [Example 94, 4-(1-Ethyl-3-(pyridin-3-yl)-1H-pyrazol-4-yl)-N-(4-(4-(2-methoxyethyl)-1,4-diazepan-1-yl)phenyl)pyrimidin-2-amine] is 1.7-fold lower in IC50: 0.0407 µM for the first, 0.0243 µM for the second.

CCn1cc(-c2ccnc(Nc3ccc(N4CCC(C(C)(C)N)CC4)cc3)n2)c(-c2cccnc2)n1 [Example 178] and CCn1cc(-c2ccnc(Nc3ccc(N4CCN(CC5COC5)CC4)cc3)n2)c(-c2cccnc2)n1 [Example 99, 4-(1-Ethyl-3-(pyridin-3-yl)-1H-pyrazol-4-yl)-N-(4-(4-(oxetan-3-ylmethyl)piperazin-1-yl)phenyl)pyrimidin-2-amine] are within 1.5-fold of each other in IC50: 0.0148 µM for the first, 0.02 µM for the second.

Compared with CCn1cc(-c2ccnc(Nc3ccc(-c4cn[nH]c4)cc3)n2)c(-c2cccnc2)n1 [Example 30, N-(4-(1H-pyrazol-4-yl)phenyl)-4-(1-ethyl-3-(pyridin-3-yl)-1H-pyrazol-4-yl)pyrimidin-2-amine], CCn1cc(-c2ccnc(Nc3cccc(N4CCNCC4)c3)n2)c(-c2cccnc2)n1 [Example 158, 4-(1-Ethyl-3-(pyridin-3-yl)-1H-pyrazol-4-yl)-N-(3-(piperazin-1-yl)phenyl)pyrimidin-2-amine] is 1.8-fold lower in IC50: 0.0329 µM for the first, 0.0185 µM for the second.

First: COCCn1cc(-c2ccnc(Nc3ccc(C4CCN(C5COC5)CC4)cc3)n2)c(-c2cccnc2)n1 [Example 13]
Second: COCCN1CCC(c2ccc(Nc3nccc(-c4cn(CCOC)nc4-c4cccnc4)n3)cc2)CC1 [Example 57, 4-(1-(2-methoxyethyl)-3-(pyridin-3-yl)-1H-pyrazol-4-yl)-N-(4-(1-(2-methoxyethyl)piperidin-4-yl)phenyl)pyrimidin-2-amine]
The IC50 of the first is 2.1-fold higher: 0.0268 µM for the first, 0.013 µM for the second.

COCCN1CCN(c2ccc(Nc3nccc(-c4cn(CC(C)(C)O)nc4-c4cccnc4)n3)cc2)CC1 [Example 81, 1-(4-(2-((4-(4-(2-Methoxyethyl)piperazin-1-yl)phenyl)amino)pyrimidin-4-yl)-3-(pyridin-3-yl)-1H-pyrazol-1-yl)-2-methylpropan-2-ol] and COCCn1cc(-c2ccnc(Nc3ccc(N4CCN(CC5CCCN5C)CC4)cc3)n2)c(-c2cccnc2)n1 (centres unmarked) [Example 80, 4-(1-(2-Methoxyethyl)-3-(pyridin-3-yl)-1H-pyrazol-4-yl)-N-(4-(4-((1-methylpyrrolidin-2-yl)methyl)piperazin-1-yl)phenyl)pyrimidin-2-amine] are within 1.5-fold of each other in IC50: 0.021 µM for the first, 0.0267 µM for the second.
